{"source": "patent EP4667458A1", "about": "(Kanaph Therapeutics Inc., priority 2023, dated 2024)", "data": [{"molecular_target": "T1, SOS1 (Homo sapiens, UniProt Q07889)", "T1 construct": "adding equal amounts of HIS-SOS1cat (160 nM; Cytoskeleton, US); His; purchased Cytoskeleton, US", "T1 sequence (Q07889 564-1049 limits assumed)": "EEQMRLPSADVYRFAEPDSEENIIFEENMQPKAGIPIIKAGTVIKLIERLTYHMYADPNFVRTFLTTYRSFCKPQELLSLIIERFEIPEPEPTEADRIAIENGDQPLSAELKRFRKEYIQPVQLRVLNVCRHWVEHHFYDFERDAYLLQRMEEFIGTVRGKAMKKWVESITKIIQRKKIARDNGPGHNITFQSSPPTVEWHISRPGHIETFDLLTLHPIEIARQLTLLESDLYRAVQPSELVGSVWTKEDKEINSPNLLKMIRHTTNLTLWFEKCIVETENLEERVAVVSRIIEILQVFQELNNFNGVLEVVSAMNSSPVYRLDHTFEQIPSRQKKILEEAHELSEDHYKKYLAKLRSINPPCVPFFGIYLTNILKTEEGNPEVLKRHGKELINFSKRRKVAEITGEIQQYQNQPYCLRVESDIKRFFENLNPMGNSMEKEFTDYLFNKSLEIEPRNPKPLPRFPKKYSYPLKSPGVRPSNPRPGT", "assay": "SOS-catalyzed nucleotide exchange assay (HTRF, SOS1-mediated GTP loading of KRAS G12D)", "assay_type": "biochemical", "conditions": "GST-KRAS G12D, HIS-SOS1cat, EDA-GTP-DY-647P1; compound 128 pM to 10 µM; read-out: SOS-catalyzed nucleotide exchange assay (IC50 range, Grade)", "description": "SOS1 activity was measured by SOS1-mediated GTP loading quantification of KRAS^G12D. GTP-loaded KRAS^G12D was detected by HTRF (Homogeneous Time Resolved Fluorescence) using anti-GST terbium (Cisbio, France) as a donor and a fluorescence GTP analogue (EDA-GTP-DY-647P1, [DY-647P1-labeled 2'/3'-O-(2-aminoethyl-carbamoyl)guanosine-5'-triphosphate (Jena bioscience, Germany)]) as an acceptor.\nAssay buffer was composed of 10 mM HEPES pH 7.4, 150 mM NaCl, 5 mM MgCl2, 1 mM DTT, 0.05% BSA Fraction V pH 7.0 (Sigma) and 0.0025% (v/v) Igepal (Sigma). KRAS^G12D working solution was prepared by adding equal amounts of GST-KRAS^G12D (100 nM) and anti-GST-terbium (2 nM; Cisbio, France) to the assay buffer and incubating on ice for 10 minutes. SOS1cat working solution was prepared by adding equal amounts of HIS-SOS1cat (160 nM; Cytoskeleton, US) and EDA-GTP-DY-647P1 (200 nM; Jena bioscience, Germany) to the assay buffer. Control solution was prepared by adding equal volumes of EDA-GTP-DY-647P1 and the assay buffer for normalization control to exclude GEF-independent GTP loading and background signals. In order to induce a reaction, 5 µL of the SOS1cat working solution or the control solution was injected into each well. 5 µL of a compound having various concentrations from 128 pM to 10 µM was added to wells containing the SOS1cat working solution and incubated at room temperature for 10 minutes to bind to SOS1.\n10 µL of the KRAS^G12D solution was added to each well and incubated for 30 minutes at room temperature while shaking. HTRF was measured using a Thermo Varioskan (excitation 334 nm, emission 665 nm). The IC50 of each inhibitor was analyzed using Graphad Prism.\nThe SOS1 inhibitory activity of the Example compounds measured by the above method was evaluated based on the following criteria, and the results are shown in Table 29.", "units": {"IC50": "nM"}, "values": [{"molecule": "1-(1-acetylpiperidin-4-yl)-N-[(1R)-1-[3-amino-5-(trifluoromethyl)phenyl]ethyl]-6-oxo-1,6-dihydropyridazine-3-carboxamide [Example 118]", "IC50": "1000 to 10000"}, {"molecule": "C[C@@H](NC(=O)c1ccc(=O)n(-c2ccccc2)n1)c1cccc(Cl)c1", "note": "[Example 1, N-[(1R)-1-(3-chlorophenyl)ethyl]-6-oxo-1-phenyl-pyridazine-3-carboxamide]", "IC50": "1000 to 10000"}, {"molecule": "C[C@@H](NC(=O)c1ccc(=O)n(-c2ccccc2)n1)c1cccc(Br)c1", "note": "[Example 2, N-[(1R)-1-(3-bromophenyl)ethyl]-6-oxo-1-phenyl-pyridazine-3-carboxamide]", "IC50": "1000 to 10000"}, {"molecule": "Cc1cccc([C@@H](C)NC(=O)c2ccc(=O)n(-c3ccccc3)n2)c1", "note": "[Example 3, (R)-6-oxo-1-phenyl-N-(1-(m-tolyl)ethyl)-1,6-dihydropyridazine-3-carboxamide]", "IC50": "> 10000"}, {"molecule": "C[C@@H](NC(=O)c1ccc(=O)n(-c2ccccc2)n1)c1cccc(C#N)c1", "note": "[Example 4, (R)-N-(1-(3-cyanophenyl)ethyl)-6-oxo-1-phenyl-1,6-dihydropyridazine-3-carboxamide]", "IC50": "1000 to 10000"}, {"molecule": "C[C@@H](NC(=O)c1ccc(=O)n(-c2ccccc2)n1)c1ccc(Cl)cc1", "note": "[Example 5, (R)-N-(1-(4-chlorophenyl)ethyl)-6-oxo-1-phenyl-1,6-dihydropyridazine-3-carboxamide]", "IC50": "> 10000"}, {"molecule": "C[C@@H](NC(=O)c1ccc(=O)n(-c2ccccc2)n1)c1ccc(Br)cc1", "note": "[Example 6, (R)-N-(1-(4-bromophenyl)ethyl)-6-oxo-1-phenyl-1,6-dihydropyridazine-3-carboxamide]", "IC50": "> 10000"}, {"molecule": "Cc1ccc([C@@H](C)NC(=O)c2ccc(=O)n(-c3ccccc3)n2)cc1", "note": "[Example 7, (R)-6-oxo-1-phenyl-N-(1-(p-tolyl)ethyl)-1,6-dihydropyridazine-3-carboxamide]", "IC50": "> 10000"}, {"molecule": "C[C@@H](NC(=O)c1ccc(=O)n(-c2ccccc2)n1)c1ccc2ccccc2c1", "note": "[Example 8, N-[(1R)-1-(2-naphthyl)ethyl]-6-oxo-1-phenyl-pyridazine-3-carboxamide]", "IC50": "1000 to 10000"}, {"molecule": "C[C@@H](NC(=O)c1ccc(=O)n(-c2ccccc2)n1)c1cccc2ccccc12", "note": "[Example 9, N-[(1R)-1-(1-naphthyl)ethyl]-6-oxo-1-phenyl-pyridazine-3-carboxamide]", "IC50": "1000 to 10000"}, {"molecule": "C[C@@H](NC(=O)c1ccc(=O)n(-c2ccccc2)n1)c1cccc(OC(F)(F)F)c1", "note": "[Example 10, 6-oxo-1-phenyl-N-[(1R)-1-[3-(trifluoromethoxy)phenyl]ethyl]pyridazine-3-carboxamide]", "IC50": "1000 to 10000"}, {"molecule": "C[C@@H](NC(=O)c1ccc(=O)n(-c2ccccc2)n1)c1cccc(S(C)(=O)=O)c1", "note": "[Example 11, N-[(1R)-1-(3-methylsulfonylphenyl)ethyl]-6-oxo-1-phenyl-pyridazine-3-carboxamide]", "IC50": "1000 to 10000"}, {"molecule": "C[C@@H](NC(=O)c1ccc(=O)n(-c2ccccc2)n1)c1ccc(S(C)(=O)=O)cc1", "note": "[Example 12, N-[(1R)-1-(4-methylsulfonylphenyl)ethyl]-6-oxo-1-phenyl-pyridazine-3-carboxamide]", "IC50": "> 10000"}]}, {"molecular_target": "T2, KRAS^G12C::SOS1 (Homo sapiens, UniProt Q07889)", "T2 sequence (Q07889 1-1333)": "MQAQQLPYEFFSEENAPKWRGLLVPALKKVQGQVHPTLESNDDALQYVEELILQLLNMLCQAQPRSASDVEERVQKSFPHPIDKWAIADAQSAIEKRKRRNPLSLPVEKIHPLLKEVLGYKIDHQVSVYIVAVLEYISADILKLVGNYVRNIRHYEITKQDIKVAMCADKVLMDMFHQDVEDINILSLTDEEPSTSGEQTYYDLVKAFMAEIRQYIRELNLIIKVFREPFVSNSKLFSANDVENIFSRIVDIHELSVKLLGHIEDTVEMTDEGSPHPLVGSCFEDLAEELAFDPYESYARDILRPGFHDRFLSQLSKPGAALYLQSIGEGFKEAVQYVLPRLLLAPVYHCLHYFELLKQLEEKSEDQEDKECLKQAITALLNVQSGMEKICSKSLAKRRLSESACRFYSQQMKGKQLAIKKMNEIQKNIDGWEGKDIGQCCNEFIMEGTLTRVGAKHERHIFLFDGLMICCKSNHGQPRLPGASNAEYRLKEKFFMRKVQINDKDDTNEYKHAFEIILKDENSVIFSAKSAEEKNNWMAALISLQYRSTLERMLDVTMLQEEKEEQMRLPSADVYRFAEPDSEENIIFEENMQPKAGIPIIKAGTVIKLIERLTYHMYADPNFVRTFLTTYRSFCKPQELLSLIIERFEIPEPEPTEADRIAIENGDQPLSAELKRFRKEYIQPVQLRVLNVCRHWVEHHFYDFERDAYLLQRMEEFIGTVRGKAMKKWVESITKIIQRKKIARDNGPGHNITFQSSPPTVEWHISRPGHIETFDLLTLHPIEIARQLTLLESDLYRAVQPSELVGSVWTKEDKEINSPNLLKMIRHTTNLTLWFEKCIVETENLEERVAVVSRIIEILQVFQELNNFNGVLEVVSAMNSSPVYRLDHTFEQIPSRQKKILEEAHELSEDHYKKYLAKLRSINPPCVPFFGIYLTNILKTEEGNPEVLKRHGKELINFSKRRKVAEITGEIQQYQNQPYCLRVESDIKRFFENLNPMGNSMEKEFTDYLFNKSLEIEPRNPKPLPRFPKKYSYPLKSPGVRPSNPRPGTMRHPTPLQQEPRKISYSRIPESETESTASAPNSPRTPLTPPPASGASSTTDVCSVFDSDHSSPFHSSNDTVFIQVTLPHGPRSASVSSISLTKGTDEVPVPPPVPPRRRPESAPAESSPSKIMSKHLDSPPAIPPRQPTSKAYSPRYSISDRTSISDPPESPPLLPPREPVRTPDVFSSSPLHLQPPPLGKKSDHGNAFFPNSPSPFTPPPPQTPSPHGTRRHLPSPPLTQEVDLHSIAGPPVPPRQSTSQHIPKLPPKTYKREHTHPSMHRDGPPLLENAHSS", "assay": "KRAS G12C::SOS1 protein-protein interaction (PPI) inhibition assay (HTRF binding kit)", "conditions": "not given", "units": {"IC50": "nM"}, "values": [{"molecule": "CNCc1c(F)cccc1-c1ccc([C@@H](C)NC(=O)c2ccc(=O)n(-c3cccnc3F)n2)s1", "note": "[Example 409]", "IC50": "< 1000"}, {"molecule": "CNCc1ccc(C#N)cc1-c1ccc([C@@H](C)NC(=O)c2ccc(=O)n(-c3ccccc3F)n2)s1", "note": "[Example 410]", "IC50": "< 1000"}, {"molecule": "CNCc1ccc(Cl)cc1-c1ccc([C@@H](C)NC(=O)c2ccc(=O)n(C3CCOCC3)n2)s1", "note": "[Example 411]", "IC50": "< 1000"}, {"molecule": "CNCc1ccccc1-c1ccc([C@@H](C)NC(=O)c2ccc(=O)n(-c3cccnc3F)n2)s1", "note": "[Example 412, 1-(2-fluoropyridin-3-yl)-N-[(1R)-1-(5-{2-[(methylamino)methyl]phenyl}thiophen-2-yl)ethyl]-6-oxo-1,6-dihydropyridazine-3-carboxamide]", "IC50": "< 1000"}, {"molecule": "CNCc1ccc(F)cc1-c1ccc([C@@H](C)NC(=O)c2ccc(=O)n(-c3cccc(-c4cnnn4C)c3)n2)s1", "note": "[Example 413]", "IC50": "< 1000"}, {"molecule": "C[C@@H](NC(=O)c1ccc(=O)n(-c2cccnc2F)n1)c1ccc(-c2cc(F)ccc2CCN)s1", "note": "[Example 414, N-[(1R)-1-[5-[2-(2-aminoethyl)-5-fluorophenyl]-2-thienyl]ethyl]-1-(2-fluoro-3-pyridyl)-6-oxopyridazine-3-carboxamide]", "IC50": "< 1000"}, {"molecule": "C[C@@H](NC(=O)c1ccc(=O)n(-c2cccnc2F)n1)c1ccc(-c2cc(F)ccc2CC#N)s1", "note": "[Example 415, N-[(1R)-1-[5-[2-(cyanomethyl)-5-fluorophenyl]-2-thienyl]ethyl]-1-(2-fluoro-3-pyridyl)-6-oxo-pyridazine-3-carboxamide]", "IC50": "< 1000"}]}, {"molecular_target": "T2, KRAS^G12C::SOS1", "assay": "KRAS G12C::SOS1 protein-protein interaction (PPI) inhibition assay (HTRF binding kit)", "conditions": "read-out: KRAS ^G12C::SOS1 PPI assay (IC50 range, Grade); maximum concentration 3 µM, 8 concentrations, three replicates", "units": {"IC50": "nM"}, "values": [{"molecule": "CNCc1ccc(F)cc1-c1ccc([C@@H](C)NC(=O)c2ccc(=O)n(-c3cccnc3O)n2)s1", "note": "[Example 408]", "IC50": "< 1000"}, {"molecule": "N-[(1R)-1-[3-amino-5-(trifluoromethyl)phenyl]ethyl]-1-(3-isoxazol-4-ylphenyl)-6-oxo-pyridazine-3-carboxamide [Example 322]", "IC50": "< 1000"}, {"molecule": "N-[(1R)-1-[3-amino-5-(trifluoromethyl)phenyl]ethyl]-1-(4-fluorophenyl)-6-oxo-pyridazine-3-carboxamide [Example 172]", "IC50": "< 1000"}, {"molecule": "N-[(1R)-1-[3-amino-5-(trifluoromethyl)phenyl]ethyl]-6-oxo-1-(3-phenylphenyl)pyridazine-3-carboxamide [Example 212]", "IC50": "1000 to 10000"}, {"molecule": "N-[(1R)-1-[3-amino-5-(trifluoromethyl)phenyl]ethyl]-6-oxo-1-[3-(4-pyridyl)phenyl]pyridazine-3-carboxamide [Example 346]", "IC50": "< 1000"}]}]}
